Source: ChEMBL document CHEMBL5543059, “Discovery of anti-inflammatory natural flavonoids: Diverse scaffolds and promising leads for drug discovery” (Eur J Med Chem, 2023)
Each block holds one compound with its values, some of them ahead of it.

Assays:
Mus musculus = test: Anti-inflammatory activity against TPA-induced mouse ear edema model assessed as inhibition of ear edema at 1 uM relative to control; type: functional; set-up: scale not given: the % may be the effect or the level left
BV-2 [1] = test: Antiinflammatory activity in mouse BV-2 cells assessed as reduction in LPS-induced NO production by Griess reagent based analysis; type: functional, cell-based
RAW264.7 [2] = test: Anti-inflammatory activity against LPS-stimulated mouse RAW264.7 cells assessed as inhibition of IL-6 expression at 10 uM by qRT-PCR analysis relative to control; type: functional; set-up: scale not given: the % may be the effect or the level left
RAW264.7 [3] = test: Anti-inflammatory activity against LPS-stimulated mouse RAW264.7 cells assessed as inhibition of IL-6 expression at 100 uM by qRT-PCR analysis relative to control; type: functional; set-up: scale not given: the % may be the effect or the level left
HepG2 = test: Anti-inflammatory activity against TNFalpha-induced human HepG2 cells assessed as inhibition of NF-kappaB activity pre-indubated for 1 hr followed by TNFalpha treatment measured for 5 hrs by luciferase based assay; type: functional, cell-based
BV-2 [4] = test: Anti-inflammatory activity in mouse BV-2 cells assessed as reduction in LPS-induced NO production; type: functional, cell-based
THP-1 = test: Anti-inflammatory activity in human THP-1 cells assessed as inhibition of LPS-stimulated NO production by ELISA analysis; type: functional, cell-based
RAW264.7 [5] = test: Anti-inflammatory activity in mouse RAW264.7 cells assessed as reduction in LPS-induced NO production by ELISA analysis; type: functional, cell-based
BV-2 [6] = test: Anti-inflammatory activity against mouse BV-2 cells assessed as inhibition of LPS-induced PGE2 production at 50 uM pretreated for 2 hrs followed stimulated with LPS for 22 hrs by ELISA analysis relative to control; type: functional; set-up: scale not given: the % may be the effect or the level left; conditions: time 24 hrs
BV-2 [7] = test: Anti-inflammatory activity against mouse BV-2 cells assessed as inhibition of LPS-induced PGE2 production pretreated for 2 hrs followed stimulated with LPS for 22 hrs by ELISA analysis; type: functional, cell-based
BV-2 [8] = test: Anti-inflammatory activity against mouse BV-2 cells assessed as inhibition of LPS-induced COX-2 expression at 50 uM pretreated for 2 hrs followed stimulated with LPS for 22 hrs by ELISA analysis relative to control; type: functional; set-up: scale not given: the % may be the effect or the level left; conditions: time 24 hrs
BV-2 [9] = test: Anti-inflammatory activity against mouse BV-2 cells assessed as inhibition of LPS-induced COX-2 expression pretreated for 2 hrs followed stimulated with LPS for 22 hrs by ELISA analysis; type: functional, cell-based
BV-2 [10] = test: Anti-inflammatory activity against mouse BV-2 cells assessed as inhibition of LPS-induced IL-1beta secretion at 50 uM pretreated for 2 hrs followed stimulated with LPS for 22 hrs by ELISA analysis relative to control; type: functional; set-up: scale not given: the % may be the effect or the level left; conditions: time 24 hrs
BV-2 [11] = test: Anti-inflammatory activity against mouse BV-2 cells assessed as inhibition of LPS-induced IL-1beta secretion pretreated for 2 hrs followed stimulated with LPS for 22 hrs by ELISA analysis; type: functional, cell-based
BV-2 [12] = test: Anti-inflammatory activity against mouse BV-2 cells assessed as inhibition of LPS-induced IL-6 at 50 uM pre-treated for 2 hrs followed stimulated with LPS for 22 hrs relative to control; type: functional; set-up: scale not given: the % may be the effect or the level left; conditions: time 24 hrs
BV-2 [13] = test: Anti-inflammatory activity against mouse BV-2 cells assessed as inhibition of LPS-induced IL-6 pre-treated for 2 hrs followed stimulated with LPS for 22 hrs; type: functional, cell-based
RAW264.7 [14] = test: Anti-inflammatory activity against mouse RAW264.7 cells assessed as reduction in NO production pre-incubated with compound for 1 hrs followed by LPS-stimulation and measured for 1 hrs by […]; type: functional, cell-based
[15] = Inhibition of nitric oxide synthase (unknown origin); set-up: species or system Homo sapiens
RAW264.7 [16] = test: Anti-inflammatory activity in LPS-stimulated mouse RAW264.7 cells assessed as reduction in NO production incubated for 24 hrs by Griess reagent based assay; type: functional, cell-based; conditions: RAW264.7, 24 h
RAW264.7 [17] = test: Anti-inflammatory activity in mouse RAW264.7 cells assessed as inhibition of LPS-induced IL-6 production at 50 microg/ml relative to control; type: functional; set-up: scale not given: the % may be the effect or the level left; conditions: dose 50 µg/ml
RAW264.7 [18] = test: Anti-inflammatory activity in mouse RAW264.7 cells assessed as inhibition of LPS-induced TNF-alpha production at 50 microg/ml relative to control; type: functional; set-up: scale not given: the % may be the effect or the level left; conditions: dose 50 µg/ml
RAW264.7 [19] = test: Anti-inflammatory activity in mouse RAW264.7 cells assessed as inhibition of LPS-induced TNFalpha production preincubated for 1 hr followed by LPS addition and measured after 24 hrs by ELISA; type: functional, cell-based
RAW264.7 [20] = test: Anti-inflammatory activity in mouse RAW264.7 cells assessed as inhibition of LPS-induced IL-6 production preincubated for 1 hr followed by LPS addition and measured after 24 hrs by ELISA; type: functional, cell-based
RAW264.7 [21] = test: Anti-inflammatory activity in mouse RAW264.7 cells assessed as inhibition of LPS-induced IL-1beta production preincubated for 1 hr followed by LPS addition and measured after 24 hrs by ELISA; type: functional, cell-based
[22] = Anti-inflammatory activity in LPS-stimulated human PBMC cells assessed as inhibition of TNFalpha at 100 ug/ml relative to control; type: functional; set-up: scale not given: the % may be the effect or the level left; conditions: dose 100 µg/ml
RAW264.7 [23] = test: Antiinflammatory activity in mouse RAW264.7 cells assessed as decrease in LPS-stimulated IL-6 mRNA level incubated for 3 hrs by RT-qPCR analysis; type: functional, cell-based; conditions: RAW264.7, 3 h
BV-2 [24] = test: Anti-inflammatory activity in mouse BV-2 cells assessed as inhibition of LPS-induced NO production preincubated with compound for 1 hrs followed by LPS stimulation and measured after 24 hrs by Griess reagent based assay; type: functional, cell-based
RAW264.7 [25] = test: Antiinflammatory activity in mouse RAW264.7 cells assessed as decrease in LPS-induced IL-6 secretion after 24 hrs by ELISA method; type: functional, cell-based; conditions: RAW264.7, 24 h
RAW264.7 [26] = test: Antiinflammatory activity against mouse RAW264.7 cells assessed as reduction of LPS-induced NO production; type: functional, cell-based
Neutrophil = test: Inhibition of fMLP-induced cell migration in human neutrophil; type: functional, cell-based
RAW264.7 [27] = test: Anti-inflammatory activity in LPS-stimulated mouse RAW264.7 cells assessed as inhibition of NO production by Griess reagent based assay; type: functional, cell-based
RAW264.7 [28] = test: Anti-inflammatory activity in LPS-stimulated mouse RAW264.7 cells assessed as inhibition of NO production by Griess reagent based analysis; type: functional, cell-based

Structure (SMILES): O=c1c(O)c(-c2ccccc2)oc2cc(O)cc(O)c12 [GALANGIN]
Activity (Mus musculus): 27.7%

IC50 (BV-2 [1]): 27 µM
Structure (SMILES): COc1cc(-c2cc(=O)c3c(O)c(OC)c(O)cc3o2)ccc1O [JACEOSIDINE]

IC50 (HepG2): 20.5 µM
IC50 (BV-2 [4]): 10.6 µM
IC50 (THP-1): 15.9 µM
IC50 (RAW264.7 [5]): 14.1 µM
IC50 (BV-2 [7]): 52.4 µM
IC50 (BV-2 [9]): 60.1 µM
IC50 (BV-2 [11]): 80.8 µM
IC50 (BV-2 [13]): 80.8 µM
Structure (SMILES): O=c1c(O)c(-c2ccc(O)cc2)oc2cc(O)cc(O)c12 [KAEMPFEROL]
Activity (RAW264.7 [2]): 80.7%
Activity (RAW264.7 [3]): 64.5%
Activity (BV-2 [6]): 65.2%
Activity (BV-2 [8]): 51.4%
Activity (BV-2 [10]): 53.2%
Activity (BV-2 [12]): 28.1%

IC50 (RAW264.7 [14]): 16.3 µM
IC50 [15]: 19.1 µM
Structure (SMILES): O=C1C[C@@H](c2ccc(O)cc2)Oc2cc(O)ccc21 [LIQUIRTIGENIN]

Structure (SMILES): O=c1cc(-c2ccc(O)c(O)c2)oc2cc(O)cc(O)c12 [LUTEOLIN]
IC50 (RAW264.7 [16]): 1200 nM
Activity (RAW264.7 [17]): 37%
Activity (RAW264.7 [18]): 38%

IC50 (RAW264.7 [19]): 23.9 µM
IC50 (RAW264.7 [20]): 19.7 µM
IC50 (RAW264.7 [21]): 19.2 µM
Structure (SMILES): O=c1c(O)c(-c2cc(O)c(O)c(O)c2)oc2cc(O)cc(O)c12 [MYRICETIN]

Structure (SMILES): O=c1c(O)c(-c2ccc(O)c(O)c2)oc2cc(O)cc(O)c12 [QUERCETIN]
Activity [22]: 28.6%
IC50 (RAW264.7 [23]): 22.5 µM
Activity (RAW264.7 [2]): 83.3%
IC50 (HepG2): 15.1 µM
IC50 (BV-2 [24]): 12.6 µM
IC50 (RAW264.7 [25]): 35.5 µM
IC50 (RAW264.7 [26]): 14.2 µM

IC50 (Neutrophil): 1770 nM
Structure (SMILES): COc1cc(O)c2c(=O)cc(-c3ccccc3)oc2c1 [TECHTOCHRYSIN]

Structure (SMILES): COc1cc(-c2cc(=O)c3c(O)cc(O)cc3o2)cc(OC)c1O [TRICIN]
IC50 (RAW264.7 [27]): 46.4 µM
IC50 (RAW264.7 [28]): 28 µM
